Our source for the T/C values is PubChem BioAssay AID200 (DTP/NCI, 2004).

SMILES strings stand for the structures. Values joined by “and” are separate entries in the source; they are usually repeats but may differ in a detail not shown here. Identical values can stand only once. Toxic doses and inconclusive results are not listed.

The assay has as its system B6C3F1 mice, B16 melanoma ip, median survival T/C. Nature of the assay: NCI In Vivo Anticancer Drug Screen. Data for tumor model B16 Melanoma (intraperitoneal) in B6C3F1 mice. The conditions noted are these: endpoint: median survival time, schedule: Q01DX009 (ip), higher = longer survival. In short, it runs like this: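 Transplantable tumor in mice; treated vs vehicle control groups; survival or tumor size measured; value = T/C ratio.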

[1] abbreviates: dose: 1.56 mg/kg/injection, vehicle: water.
Setting [2] is: dose: 1.5 mg/kg/injection, vehicle: saline with Tween-80.
The mark [3] stands for this setting: dose: 3.0 mg/kg/injection, vehicle: saline with Tween-80.
Where [4] appears, read: dose: 6.0 mg/kg/injection, vehicle: saline with Tween-80.
The mark [5] stands for this setting: dose: 100.0 mg/kg/injection, vehicle: saline with Tween-80.
[6] abbreviates: dose: 200.0 mg/kg/injection, vehicle: saline with Tween-80.
[7] abbreviates: dose: 25.0 mg/kg/injection, vehicle: saline.
[8] abbreviates: dose: 50.0 mg/kg/injection, vehicle: saline.
The mark [9] stands for this setting: dose: 100.0 mg/kg/injection, vehicle: saline.
Setting [10] is: dose: 50.0 mg/kg/injection, vehicle: Klucel (hydroxypropylcellulose) (HPC).
The mark [11] stands for this setting: dose: 100.0 mg/kg/injection, vehicle: Klucel (hydroxypropylcellulose) (HPC).
Where [12] appears, read: dose: 200.0 mg/kg/injection, vehicle: Klucel (hydroxypropylcellulose) (HPC).
The mark [13] stands for this setting: dose: 12.5 mg/kg/injection, vehicle: saline.
Setting [14] is: dose: 200.0 mg/kg/injection, vehicle: saline.

With `CN=C(NC)c1ccc(NC(=O)/C=C\c2ccc(/C=C/C(=O)Nc3ccc(C(=NC)NC)cc3)cc2)cc1`, the T/C reads like this: (dose: 1.56 mg/kg/injection, vehicle: Klucel (hydroxypropylcellulose) (HPC)) 110 % of control; (dose: 3.12 mg/kg/injection, vehicle: Klucel (hydroxypropylcellulose) (HPC)) 107 % of control; (dose: 6.25 mg/kg/injection, vehicle: Klucel (hydroxypropylcellulose) (HPC)) 90 % of control.

As to `O=C(O)C1CC1.[Ag]`, the T/C runs as follows: (dose: 0.78 mg/kg/injection, vehicle: water) 99 % of control; under setting [1], 122 % of control; (dose: 3.12 mg/kg/injection, vehicle: water) 100 % of control; (dose: 6.25 mg/kg/injection, vehicle: water) 92 % of control.

Take `CC/C(C)=C1\OC(=O)C(C)C(O)C(Cc2cccnc2)NC(=O)C(NC(=O)c2ncccc2O)C(C)OC1=O` (configuration not stated): the T/C is 113 % of control (dose: 0.75 mg/kg/injection, vehicle: saline with Tween-80); 107 % of control under setting [2]; 123 % of control under setting [3]; 86 % of control under setting [4].

As for `CCOC(=O)c1c(C)c(C(=O)OCC)n(CC)c1C=O`, the T/C was 86 % of control (dose: 50.0 mg/kg/injection, vehicle: saline with Tween-80); 89 % of control under setting [5]; 93 % of control under setting [6].

Regarding `Cc1ccc(NN=O)nc1`, the T/C runs as follows: (dose: 0.75 mg/kg/injection, vehicle: water) 114 % of control; (dose: 1.5 mg/kg/injection, vehicle: water) 120 % of control; under setting [1], 112 % of control; (dose: 3.0 mg/kg/injection, vehicle: water) 120 % of control; (dose: 6.0 mg/kg/injection, vehicle: water) 124 % of control.

Regarding `Clc1ncnc2c1ncn2C1CCCO1` (configuration not stated), the T/C under setting [7] was 93 % of control; the T/C under setting [8] was 99 % of control; the T/C under setting [9] is 88 % of control and 94 % of control.

In the case of `CCCCC(NC(=O)C(C)N)C(=O)O` (configuration not stated), the T/C under setting [10] was 102 % of control; the T/C under setting [11] was 107 % of control; the T/C under setting [12] was 96 % of control; the T/C (dose: 400.0 mg/kg/injection, vehicle: Klucel (hydroxypropylcellulose) (HPC)) was 93 % of control.

Take `CN=C(N)N/N=C(\c1ccccc1)c1ccc(Br)cc1`: the T/C under setting [2] was 103 % of control; the T/C under setting [3] is 107 % of control; the T/C under setting [4] is 97 % of control; the T/C (dose: 12.0 mg/kg/injection, vehicle: saline with Tween-80) was 96 % of control.

Regarding `Nc1nc2c(ncn2C2OC(CO)C(O)C2O)c(=O)[nH]1` (configuration not stated), the T/C is, setting by setting: (dose: 75.0 mg/kg/injection, vehicle: saline with Tween-80) 120 % of control; (dose: 1200.0 mg/kg/injection, vehicle: saline with Tween-80) 121 % of control; (dose: 2400.0 mg/kg/injection, vehicle: saline with Tween-80) 116 % of control.

As for `O=C1CSC(c2cccs2)N1c1nncs1` (configuration not stated), the T/C is 102 % of control (dose: 25.0 mg/kg/injection, vehicle: Klucel (hydroxypropylcellulose) (HPC)); 92 % of control under setting [10]; 92 % of control under setting [11]; 97 % of control under setting [12].

For the molecule `C[CH2][Sn]([CH2]C)([O]S(C)(=O)=O)[O]S(C)(=O)=O`, the T/C is 92 % of control (dose: 0.78 mg/kg/injection, vehicle: saline); 102 % of control (dose: 0.79 mg/kg/injection, vehicle: saline); 98 % of control and 103 % of control (dose: 1.56 mg/kg/injection, vehicle: saline); 97 % of control and 103 % of control (dose: 3.12 mg/kg/injection, vehicle: saline); 108 % of control and 96 % of control (dose: 6.25 mg/kg/injection, vehicle: saline); 91 % of control and 99 % of control under setting [13].

For `Cc1ccccc1N(CC1CO1)CC1CO1` (configuration not stated), the T/C by setting is: under setting [13], 113 % of control; under setting [7], 105 % of control; under setting [8], 100 % of control; under setting [9], 116 % of control; under setting [14], 124 % of control.

`COc1ccc2c(c1)CCn1c(C)c(COC(=O)NC(C)C)c(COC(=O)NC(C)C)c1-2`: the T/C (dose: 1.5 mg/kg/injection, vehicle: distilled water + Tween-80) was 114 % of control; the T/C (dose: 3.0 mg/kg/injection, vehicle: distilled water + Tween-80) was 154 % of control; the T/C (dose: 3.12 mg/kg/injection, vehicle: distilled water + Tween-80) was 150 % of control; the T/C (dose: 12.0 mg/kg/injection, vehicle: distilled water + Tween-80) is 163 % of control; the T/C (dose: 12.5 mg/kg/injection, vehicle: distilled water + Tween-80) was 180 % of control.

As to `CC12CC3OC(=O)C1COC14OC5(C2C1=O)C(O)(CCC1C4CC2OC24CC=CC(=O)C14C)C(=O)OC35C` (configuration not stated), the T/C by setting is: (dose: 7.5 mg/kg/injection, vehicle: Klucel (hydroxypropylcellulose) (HPC)) 88 % of control; (dose: 15.0 mg/kg/injection, vehicle: Klucel (hydroxypropylcellulose) (HPC)) 93 % of control; (dose: 30.0 mg/kg/injection, vehicle: Klucel (hydroxypropylcellulose) (HPC)) 99 % of control.

For the molecule `O=c1[nH]c(=O)n([C@H]2CCCO2)cc1F`, the T/C was 98 % of control (dose: 12.5 mg/kg/injection, vehicle: suspension in saline); 100 % of control (dose: 25.0 mg/kg/injection, vehicle: suspension in saline); 112 % of control (dose: 50.0 mg/kg/injection, vehicle: suspension in saline); 107 % of control (dose: 100.0 mg/kg/injection, vehicle: suspension in saline); 120 % of control (dose: 200.0 mg/kg/injection, vehicle: suspension in saline).

On to `CC[C@@]1(O)C[C@H](OC2CC(N(C)C)C(OC3CC(O)C(OC4CCC(=O)C(C)O4)C(C)O3)C(C)O2)c2c(cc3c(c2O)C(=O)c2c(O)ccc(O)c2C3=O)[C@H]1C(=O)OC` (some centres not stated), for which the T/C was 100 % of control (dose: 0.25 mg/kg/injection, vehicle: water); 120 % of control (dose: 0.5 mg/kg/injection, vehicle: water); 156 % of control (dose: 1.0 mg/kg/injection, vehicle: water).

`NC(CS)C(=O)O` (configuration not stated): the T/C under setting [8] is 93 % of control and 104 % of control; the T/C under setting [5] is 107 % of control; the T/C under setting [9] is 93 % of control and 103 % of control; the T/C under setting [6] was 109 % of control; the T/C under setting [14] is 93 % of control; the T/C (dose: 400.0 mg/kg/injection, vehicle: saline with Tween-80) is 107 % of control. Moreover, the T/C (dose: 400.0 mg/kg/injection, vehicle: saline) is 116 % of control and 92 % of control; the T/C (dose: 800.0 mg/kg/injection, vehicle: saline with Tween-80) is 100 % of control.
